From US9447083B2, “N-acylhydrazone derivatives for selective T cell inhibitor and anti-lymphoid malignancy drug” (CHONG KUN DANG PHARMACEUTICAL CORP., priority 2012, dated 2016)

Test system: Jurkat T cells
Experiment: Pro-apoptotic activity on Jurkat T cells (FITC-Annexin V / 7-AAD flow cytometry)
Assay type: cell-based
Conditions: Homo sapiens, 72 hours, cells stained with FITC-Annexin V and 7-AAD among total cells, read-out: Cell Apoptosis Effect to Jurkat T Cell (% in 5 μM)
Experimental: In order to investigate the effects of the prepared compounds, the apoptosis-inducing effects of the compounds on human T cell acute lymphoblastic leukemia cell line, Jurkat T cells, were evaluated in the following manner.
Jurkat T cells cultured in RPMI medium containing 10% fetal bovine serum (FBS) were collected and stained with trypan blue (Sigma). […] Then, the cells were centrifuged at 1200 rpm at room temperature for 5 minutes and re-suspended in 10% FBS-containing RPMI medium at a concentration of 1.5×10^5 cells/mL. 200 μL of the cell suspension was dispensed into each well of a flat bottom 96-well plate (Costar). Then, the cells were treated with 10 μL of the diluted compounds in RPMI medium at final concentrations of […] or 5 μM, and incubated in a 5% CO2 incubator at 37° C. for 72 hours. In a vehicle control group, the cells were treated with 10 μL of RPMI medium containing 1% of dimetylsulfoxide (DMSO, Sigma). The incubated cells were harvested, put into 5-mL FACS tubes (BD Falcon), washed with 1 mL of phosphate buffered saline (PBS), and then re-suspended in 0.1 mL of binding buffer (10 mM Hepes-NaOH, pH 7.4, 140 mM NaCl, […] CaCl2). The suspended cells were stained with fluorescein isothiocyanate (FITC)-Annexin V (BD Biosciences) and 7-amino-actinomycin D (7-AAD, e-Biosciences) at room temperature for 15 minutes. The stained cells were suspended in 0.3 mL of binding buffer and analyzed by a flow cytometer. Apoptosis was determined by the ratio (%) of cells stained with FITC-Annexin V and 7-AAD among the total cells (see Tables 10 and 11).

Compound	cytotoxicity at 5 µM [%]
Cc1ccccc1OCC(=O)N/N=C/c1cccc2[nH]ccc12 [Compound 013, (E)-N′-((1H-indol-4-yl)methylene)-2-(o-tosyloxy)acetohydrazide]	100
Cc1ccccc1OCC(=O)N/N=C/c1ccc2[nH]ccc2c1 [Compound 014]	100
Cc1ccccc1OCC(=O)N/N=C/c1ccc2cc[nH]c2c1 [Compound 034]	90
Cc1ccccc1OCC(=O)N/N=C/c1ccc2c(ccn2CN(C)C)c1 [Compound 072]	95
Cc1cc(Br)cc(C)c1OCC(=O)N/N=C/c1ccc2[nH]ccc2c1 [Compound 092, (E)-N′-((1H-indol-5-yl)methylene)-2-(4-bromo-2,6-dimethylphenoxy)acetohydrazide]	100
Cc1ccccc1OCC(=O)N/N=C/c1ccc2[nH]cnc2c1 [Compound 100]	90
Cc1cc(C)c(OCC(=O)N/N=C/c2cc3ccccc3[nH]2)c(C)c1 [Compound 109, (E)-N′-((1H-indol-2-yl)methylene)-2-(mesityloxy)acetohydrazide]	100
Cc1cc(Br)cc(C)c1OCC(=O)N/N=C/c1cccc2[nH]ccc12 [Compound 112, (E)-N′-((1H-indol-4-yl)methylene)-2-(4-bromo-2,6-dimethylphenoxy)acetohydrazide]	100
Cc1cccc(C)c1OCC(=O)N/N=C/c1cccc2[nH]ccc12 [Compound 118, (E)-N′-((1H-indol-4-yl)methylene)-2-(2,6-dimethylphenoxy)acetohydrazide]	100
CC(C)c1cccc(C(C)C)c1OCC(=O)N/N=C/c1cccc2[nH]ccc12 [Compound 121, (E)-N′-((1H-indol-4-yl)methylene)-2-(2,6-diisopropylphenoxy)acetohydrazide]	100
Cc1cc(C(C)(C)C)c(OCC(=O)N/N=C/c2cccc3[nH]ccc23)c(C(C)(C)C)c1 [Compound 127, (E)-N′-((1H-indol-4-yl)methylene)-2-(2,6-di-tert-butyl-4-methylphenoxy)acetohydrazide]	100
Cc1cc(Br)cc(C)c1OCC(=O)N/N=C/c1ccc2cc[nH]c2c1 [Compound 133, (E)-N′-((1H-indol-6-yl)methylene)-2-(4-bromo-2,6-dimethylphenoxy)acetohydrazide]	100
Cc1cc(C)c(NCC(=O)N/N=C/c2cccc3[nH]ccc23)c(C)c1 [Compound 135, (E)-N′-((1H-indol-4-yl)methylene)-2-(mesitylamino)acetohydrazide]	100
Cc1cc(C)c(NCC(=O)N/N=C/c2c[nH]c3ccccc23)c(C)c1 [Compound 136]	100
Cc1cc(-c2cccnc2)cc(C)c1OCC(=O)N/N=C/c1cccc2[nH]ccc12 [Compound 137, (E)-N′-((1H-indol-4-yl)methylene)-2-(2,6-dimethyl-4-(pyridin-3-yl)phenoxy)acetohydrazide]	100
Cc1cc(-c2cccnc2)cc(C)c1OCC(=O)N/N=C/c1c[nH]c2ccccc12 [Compound 138]	90
Cc1cc(-c2cccnc2)cc(C)c1OCC(=O)N/N=C/c1ccc2cc[nH]c2c1 [Compound 139, (E)-N′-((1H-indol-6-yl)methylene)-2-(2,6-dimethyl-4-(pyridin-3-yl)phenoxy)acetohydrazide]	100

Compound	cytotoxicity at 5 µM [%]
O=C(COc1ccccc1-c1cccnc1)N/N=C/c1cccc2[nH]ccc12 [Compound 146, (E)-N′-((1H-indol-4-yl)methylene)-2-(2-(pyridin-3-yl)phenoxy)acetohydrazide]	100
Cc1cc(C)c(SCC(=O)N/N=C/c2cccc3[nH]ccc23)c(C)c1 [Compound 147, (E)-N′-((1H-indol-4-yl)methylene)-2-(mesitylthio)acetohydrazide]	100
Cc1cc(-c2cncnc2)cc(C)c1OCC(=O)N/N=C/c1cccc2[nH]ccc12 [Compound 149, (E)-N′-((1H-indol-4-yl)methylene)-2-(2,6-dimethyl-4-(pyrimidin-5-yl)phenoxy)acetohydrazide]	100
Cc1cc(-c2cnc(N)nc2)cc(C)c1OCC(=O)N/N=C/c1ccc2cc[nH]c2c1 [Compound 152, (E)-N′-((1H-indol-6-yl)methylene)-2-(4-(2-aminopyrimidin-5-yl)-2,6-dimethylphenoxy)acetohydrazide]	90
Cc1cc(Cl)cc(C)c1OCC(=O)N/N=C/c1cccc2[nH]ccc12 [Compound 155, (E)-N′-((1H-indol-4-yl)methylene)-2-(4-chloro-2,6-dimethylphenoxy)acetohydrazide]	100
Cc1cc(Cl)cc(C)c1OCC(=O)N/N=C/c1c[nH]c2ccccc12 [Compound 156, (E)-N′-((1H-indol-3-yl)methylene)-2-(4-chloro-2,6-dimethylphenoxy)acetohydrazide]	90
Cc1cc(Cl)cc(C)c1OCC(=O)N/N=C/c1ccc2cc[nH]c2c1 [Compound 157, (E)-N′-((1H-indol-6-yl)methylene)-2-(4-chloro-2,6-dimethylphenoxy)acetohydrazide]	100
Cc1cc(C)c(SCC(=O)N/N=C/c2c[nH]c3ccccc23)c(C)c1 [Compound 158, (E)-N′-((1H-indol-3-yl)methylene)-2-(mesitylthio)acetohydrazide]	100
Cc1cc(C)c(SCC(=O)N/N=C/c2ccc3cc[nH]c3c2)c(C)c1 [Compound 159, (E)-N′-((1H-indol-6-yl)methylene)-2-(mesitylthio)acetohydrazide]	100
Cc1cc(C)c(OCC(=O)N(C)/N=C/c2cccc3c2ccn3C)c(C)c1 [Compound 164, (E)-2-(mesityloxy)-N-methyl-N′-((1-methyl-1H-indol-4-yl)methylene)acetohydrazide]	100
Cc1cc(C)c(OCC(=O)N(CCO)/N=C/c2cccc3[nH]ccc23)c(C)c1 [Compound 177, (E)-N′-((1H-indol-4-yl)methylene)-N-(2-hydroxyethyl)-2-(mesityloxy)acetohydrazide]	100
Cc1cc(C)c(OCC(=O)N/N=C/c2cccc3c2ccn3CCO)c(C)c1 [Compound 180, (E)-N′-((1-(2-hydroxyethyl)-1H-indol-4-yl)methylene)-2-(mesityloxy)acetohydrazide]	90
Cc1cc(C)c(OCC(=O)N/N=C/c2cccc3[nH]ccc23)c(-c2cccnc2)c1 [Compound 182, (E)-N′-((1H-indol-4-yl)methylene)-2-(2,4-dimethyl-6-(pyridin-3-yl)phenoxy)acetohydrazide]	100
Cc1cc(C)c(OCC(=O)N/N=C/c2ccc3cc[nH]c3c2)c(-c2cccnc2)c1 [Compound 183, (E)-N′-((1H-indol-6-yl)methylene)-2-(2,4-dimethyl-6-(pyridin-3-yl)phenoxy)acetohydrazide]	100
Cc1cc(C)c(OCC(=O)N/N=C/c2ccc3[nH]ccc3c2)c(-c2cccnc2)c1 [Compound 184, (E)-N′-((1H-indol-5-yl)methylene)-2-(2,4-dimethyl-6-(pyridin-3-yl)phenoxy)acetohydrazide]	100
Cc1ncccc1OCC(=O)N/N=C/c1cccc2[nH]ccc12 [Compound 187, (E)-N′-((1H-indol-4-yl)methylene)-2-((2-methylpyridin-3-yl)oxy)acetohydrazide]	100
